Results from the NIST ThermoML archive (doi:10.1021/je101361u).

Assay: xn = mol fraction of the nth substance listed
Conditions: 101.3 kPa, Liquid

COCCOC [1,2-dimethoxyethane] + ClCCCl
mass density [kg/m3]
Conditions	283.15 K	288.15 K	293.15 K
x2 = 0.0251	885.37	879.96	874.49
x2 = 0.05	893.06	887.61	882.11
x2 = 0.0501	893.14	887.69	882.19
x2 = 0.075	900.9	895.43	889.9
x2 = 0.1	908.78	903.28	897.71
x2 = 0.1552	926.63	921.05	915.42
x2 = 0.2001	941.4	935.76	930.07
x2 = 0.2501	958.23	952.53	946.77
x2 = 0.3002	975.46	969.68	963.86
x2 = 0.35	992.96	987.11	981.21
x2 = 0.4001	1010.98	1005.05	999.08
x2 = 0.45	1029.37	1023.36	1017.3
x2 = 0.5	1048.22	1042.13	1035.99
x2 = 0.5001	1048.32	1042.23	1036.09
x2 = 0.55	1067.59	1061.41	1055.19
x2 = 0.6001	1087.41	1081.15	1074.83
x2 = 0.65	1107.73	1101.37	1094.96
x2 = 0.7	1128.6	1122.14	1115.63
x2 = 0.75	1150.14	1143.57	–
x2 = 0.8	1172.13	1165.45	–
x2 = 0.85	1195.03	1188.23	–
x2 = 0.9	1218.48	1211.55	–
x2 = 0.925	1230.36	1223.37	–
x2 = 0.975	1254.94	1247.8	–
